Measurements: patent publication US11999746B2, “Compounds” (GlaxoSmithKline Intellectual Property Development Limited, priority 2014, dated 2024)

Experiments:
[1] = target: T1, recombinant human Lp-PLA2 (Homo sapiens, UniProt Q13093); test: (1a) PED6 assay, recombinant human Lp-PLA2 (rhLp-PLA2); assay type: biochemical; details: Examples 1-167 and 413-430 were tested here, one experiment or average of multiple experiments, read-out: rhLp-PLA2 (pIC50) (converted)
T1 sequence (Q13093 22-441): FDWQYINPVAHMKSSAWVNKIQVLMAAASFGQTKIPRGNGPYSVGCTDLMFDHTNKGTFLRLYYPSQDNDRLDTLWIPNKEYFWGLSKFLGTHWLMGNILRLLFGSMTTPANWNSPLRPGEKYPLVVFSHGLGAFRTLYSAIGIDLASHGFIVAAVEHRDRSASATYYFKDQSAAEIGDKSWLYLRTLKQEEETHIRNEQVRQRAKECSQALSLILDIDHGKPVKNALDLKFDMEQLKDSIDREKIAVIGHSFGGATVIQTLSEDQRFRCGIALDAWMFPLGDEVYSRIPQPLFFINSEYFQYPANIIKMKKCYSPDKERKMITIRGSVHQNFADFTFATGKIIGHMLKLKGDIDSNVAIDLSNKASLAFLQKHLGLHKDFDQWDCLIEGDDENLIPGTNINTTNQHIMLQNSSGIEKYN
Text: (1) Recombinant Human Lp-PLA2 Assays (rhLp-PLA2)
N-((6-(2,4-Dinitrophenyl)amino)-hexanoyl)-2-(4,4-difluoro-5,7-dimethyl-4-bora-3a,4a-diaza-s-indacene-3-pentanoyl)-1-hexadecanoyl-sn-glycero-3-phosphoethanolamine, triethylammonium salt (PED6) is a commercially available fluorescently-labeled phospholipid, which is commercially available from Invitrogene and Molecular Probes. There is a quenching […] and a Bodipy fluorescein (FL) group in the sn2 position. Upon cleavage with Lp-PLA2, the Bodipy FL group is liberated and then may result in an increase in fluorescence. Inhibitors of Lp-PLA2 therefore prevent this cleavage and no fluorescent increase is observed.
The PED6 assay was run as an unquenched 10 μL assay. The source plate containing the compounds to be tested was prepared by making 1:3 (by volume) serial dilution of the compounds within DMSO on 384-well microplate. Then, 0.01 μL of the compounds on compound source plate were transferred into 384 well Greiner 784076 (black) plates using ECHO liquid dispenser. 5 μL of recombinant human Lp-PLA2 enzyme (4 nM) rhLp-PLA2 in assay buffer of 50 mM HEPES, pH 7.4, 150 mM NaCl, 1 mM CHAPS) was added to each well of the plate. Plates were centrifuged for 10 sec at 500 rpm. After 30 minutes preincubation, 5 μL of substrate (4 μM PED6 [from 5 mM DMSO stock] in assay buffer of 50 mM HEPES, pH 7.4, 150 mM NaCl, 1 mM CHAPS) was added to 384 well Greiner 784076 (black) plates. Plates were centrifuged for 10 sec at 500 rpm. The plate was covered to protect it from light and incubated for 20 min at room temperature. The plates were read for fluorescence intensity at ex: 480/em: 540 using ViewLux microplate imager for Envision spectrofluroimeters. pIC50 data, curve and QC analysis was conducted by using XL fit module in Excel.

[2] = target: T2, Lp-PLA2 in human plasma (Homo sapiens, UniProt Q13093); test: (3a) Lp-PLA2 human plasma Thio-PAF assay; assay type: biochemical; details: (3a) Thio-PAF assay, pooled human plasma; Examples 1-265 and 413-430 were tested here; read-out: pIC50 in the Lp-PLA2 human plasma assay (converted)
T2 construct: from tissue; host or cells: pooled human plasma
T2 sequence (Q13093 22-441): T1 sequence (Q13093 22-441)
Text: (3) Lipoprotein-Associated Phospholipase A2 (Lp-PLA2) Human Plasma Assay
The human plasma assay utilizes a thioester analog of PAF (phosphatidylcholine), where hydrolysis yields to the formation of a phospholipid containing a free thiol group. The amount of thiol is quantitated continuously by reacting with CPM (7-diethylamino-3-(4′-maleimidylphenyl)-4-methylcoumarin), a maleimide which increases in fluoresence after Michael addition of thiols. This assay may detect the activity of Lp-PLA2 in human plasma, as determined by specific inhibition by Lp-PLA2 inhibitors.
The thio-PAF assay was run as a quenched 15 μL assay. Compounds source plate was prepared by making 1:3 (by volume) serial dilution of the compounds into pure DMSO on 384-well microplate. 0.01 μL of compounds on compound source plate were transferred to 384 well Greiner 784076 (black) low-volume plates by ECHO liquid dispenser. 8 μL pooled human plasma, which was previously aliquoted and frozen, was added. Plates were centrifuged for 10 sec at 500 rpm. After 30 minutes preincubation, 2 μL of substrate solution comprising 2.5 mM 2-thio-PAF [from ethanol stock], 32 μM CPM [from a DMSO stock] and 3.2 mM NEM (N-ethylmaleimide) [made fresh daily in DMSO] in assay buffer of 50 mM HEPES, pH 7.4, 150 mM NaCl, 1 mM CHAPS was added to 384 well Greiner 784076 (black) low-volume plates by BRAVO liquid handling station. After 2 mins, reaction was quenched with 5 μL of 5% aqueous trifluoroacetic acid (TFA). Plates were covered to protect from light and incubated for 40 min at room temperature. Plates were read at ex: 380/em: 485 using Envision microplate reader. PIC50 data, curve and QC analysis were conducted by using XLFit module in Excel.

Row | IC50 [1] [nM] | IC50 [2] [µM] | Structure (SMILES)
1 | ≤ 100 | ≤ 10 | O=c1nc(OCc2cnc(Oc3ccc(Cl)c(C(F)(F)F)c3)c(F)c2)cc2n1CC1CCCN21 (stereo not drawn) [Example E76, 3-((6-(4-Chloro-3-(trifluoromethyl)phenoxy)-5-fluoropyridin-3-yl)methoxy)-7,8,8a,9 tetra hydro pyrrolo[1′,2′:3,4]imidazo[1,2-c]pyrimidin-1(6H)-one]
2 | ≤ 1 | ≤ 0.1 | CCCn1cc(Oc2c(F)cc(COc3cc4n(c(=O)n3)C[C@H]3COCCN43)cc2F)cn1 [Example E112, (S)-7-((3,5-difluoro-4-((1-propyl-1H-pyrazol-4-yl)oxy)benzyl)oxy)-3,4,11,11atetrahydropyrimido[6′,1′:2,3]imidazo[5,1-c][1,4]oxazin-9(1H)-one]
3 | ≤ 1 | ≤ 0.1 | N#Cc1cc(COc2cc3n(c(=O)n2)CC2CCCN32)ccc1Oc1ccc(Cl)c(C(F)(F)F)c1 (stereo not drawn) [Example E77, 2-(4-Chloro-3-(trifluoromethyl)phenoxy)-5-(((1-oxo-1,6,7,8,8a,9-hexahydropyrrolo[1,2′:3,4]imidazo[1,2-c]pyrimidin-3-yl)oxy)methyl)benzonitrile]
4 | ≤ 100 | ≤ 0.1 | O=c1nc(OCc2cc(F)c(F)c(F)c2)cc2n1C[C@H]1COCCN21 [Example E116, (S)-7-((3,4,5-trifluorobenzyl)oxy)-3,4,11,11atetrahydropyrimido[6′,1′:2,3]imidazo[5,1-c][1,4] oxazin-9(1H)-one]
5 | ≤ 1 | ≤ 0.1 | N#Cc1cc(COc2cc3n(c(=O)n2)CC2CCCN32)ccc1Oc1cccc(F)c1 (stereo not drawn) [Example E85, 2-(3-fluorophenoxy)-5-(((1-oxo-1,6,7,8,8a,9-hexahydropyrrolo[1,2′:3,4]imidazo[1,2-c]pyrimidin-3-yl)oxy)methyl)benzonitrile]
6 | ≤ 100 | ≤ 0.1 | O=c1nc(OCc2cc(F)c(F)c(F)c2)cc2n1C[C@H]1COCN21 [Example E146, (S)-6-((3,4,5-trifluorobenzyl)oxy)-10,10a-dihydro-1H-oxazolo[3′,4′:3,4]imidazo[1,2-c] pyrimidin-8(3H)-one]

Continued, compound first:

Row | Structure (SMILES) | IC50 [1] [nM] | IC50 [2] [µM]
7 | O=c1nc(OCc2cc(F)c(F)c(F)c2)cc2n1C[C@@H]1CCCN21 [Example E73, (S)-3-((3,4,5-trifluorobenzyl)oxy)-7,8,8a,9-tetrahydropyrrolo[1,2′:3,4]imidazo[1,2-c] pyrimidin-1(6H)-one] | ≤ 100 | ≤ 10
8 | O=c1nc(OCc2ccc(F)c(Cl)c2)cc2n1CC1CCCCN21 (stereo not drawn) [Example E27, 3-((3-Chloro-4-fluorobenzyl)oxy)-6,7,8,9,9a,10-hexahydro-1H-pyrido[1′,2′:3,4]imidazo[1,2 c]pyrimidin-1-one] | ≤ 100 | ≤ 10
9 | O=c1nc(OCc2cc(F)c(Oc3ccc(C(F)(F)F)nc3)c(F)c2)cc2n1CC1CCCCN21 (stereo not drawn) [Example E49, 3-((3,5-difluoro-4-((6-(trifluoromethyl)pyridin-3-yl)oxy)benzyl)oxy)-6,7,8,9,9a,10-hexahydro-1H-pyrido[1′,2′:3,4]imidazo[1,2-c]pyrimidin-1-one] | ≤ 1 | ≤ 0.1
10 | O=c1nc(OCc2cc(F)c(Oc3ccc(C(F)(F)F)nc3)c(F)c2)cc2n1CC1CCCCN21 (stereo not drawn) [Example E25, 3-((3,5-Difluoro-4-((6-(trifluoromethyl)pyridin-3-yl)oxy)benzyl)oxy)-6,7,8,9,9a,10-hexahydro-1H-pyrido[1′,2′:3,4]imidazo[1,2-c]pyrimidin-1-one] | ≤ 1 | ≤ 0.1
11 | O=c1nc(OCc2ccc(Oc3ccc(C(F)(F)F)nc3)c(F)c2)cc2n1CC1CCCCN21 (stereo not drawn) [Example E22, 3-((3-Fluoro-4-((6-(trifluoromethyl)pyridin-3-yl)oxy)benzyl)oxy)-6,7,8,9,9a,10-hexahydro-1H-pyrido[1′,2′:3,4]imidazo[1,2-c]pyrimidin-1-one] | ≤ 1 | ≤ 10
12 | CN1c2cc(OCc3cccc(F)c3F)nc(=O)n2CC12CCC2 [Example 420, 7′4(2,3-difluorobenzyhoxy)-1-methyl-1H-spiro[cyclobutane-1,2′-imidazo[1,2-c]pyrimidin]-5′(3′H)-one] | ≤ 100 | ≤ 10
13 | O=c1nc(OCc2cc(F)cc(F)c2)cc2n1CC1CCCCN21 (stereo not drawn) [Example E3, 3-((3,5-Difluorobenzyl)oxy)-6,7,8,9,9a,10-hexahydro-1H-pyrido[1′,2′:3,4]imidazo-[1,2-c] pyrimidin-1-one] | ≤ 100 | ≤ 10
14 | O=c1nc(OCCc2cccs2)cc2n1C[C@@H]1CCCCN21 [Example E36, (S)-3-(2-(Thiophen-2-yl)ethoxy)-6,7,8,9,9a,10-hexahydro-1H-pyrido[1′,2′:3,4]imidazo[1,2-c]pyrimidin-1-one] | ≤ 100 | ≤ 10
15 | O=c1nc(OCc2ccc(F)cc2)cc2n1C[C@@H]1CCCCN21 [Example E34, (S)-3-((4-Fluorobenzyl)oxy)-6,7,8,9,9a,10-hexahydro-1H-pyrido[1′,2′:3,4]imidazo-[1,2-c] pyrimidin-1-one] | ≤ 100 | ≤ 10
16 | N#Cc1cc(F)cc(COc2cc3n(c(=O)n2)CC2CCCCN32)c1 (stereo not drawn) [Example E15, 3-Fluoro-5-(((1-oxo-6,7,8,9,9a,10-hexahydro-1H-pyrido[1′,2′:3,4]imidazo[1,2-c]pyrimidin-3-yl)oxy)methyl)benzonitrile] | ≤ 100 | ≤ 10
17 | O=c1nc(OCc2ccc(F)c(C(F)(F)F)c2)cc2n1CC1CCCCN21 (stereo not drawn) [Example E13, 3-((4-Fluoro-3-(trifluoromethyl)benzyl)oxy)-6,7,8,9,9a,10-hexahydro-1H-pyrido-[1′,2′:3,4] imidazo[1,2-c]pyrimidin-1-one] | ≤ 10000 | 
18 | N#Cc1ccc(COc2cc3n(c(=O)n2)CC2CCCCN32)cc1 (stereo not drawn) [Example E4, 4-(((1-Oxo-6,7,8,9,9a,10-Hexahydro-1H-pyrido[1′,2′:3,4]imidazo[1,2-c]pyrimidin-3-yl)oxy)methyl)benzonitrile] | ≤ 10000 | 
19 | O=c1nc(OCc2ccc(C(F)(F)F)c(Cl)c2)cc2n1CC1CCCCN21 (stereo not drawn) [Example E7, 3-((3-Chloro-4-(trifluoromethyl)benzyl)oxy)-6,7,8,9,9a,10-hexahydro-1H-pyrido[1′,2′:3,4] imidazo[1,2-c]pyrimidin-1-one] | ≤ 10000 | 
20 | O=c1nc(OCc2cc(F)c(Oc3ccnc(C(F)(F)F)c3)c(F)c2)cc2n1C[C@@H]1CCCN21 [Example E71, (S)-3-((3,5-difluoro-4-((2-(trifluoromethyl)pyridin-4-yl)oxy)benzyl)oxy)-7,8,8a, 9-tetra hydropyrrolo[1′,2′:3,4]imidazo[1,2-c]pyrimidin-1(6H)-one] | ≤ 1 | 
